As a reminder, the pIC50 is the IC50 on a negative log10 scale, so that one unit is a factor of ten.

The target of test [1] is human PDE4D catalytic domain (UniProt no. Q08499 [S380-L740]) (Homo sapiens (Human), UniProt Q08499). The experiment in a line: PDE4 assay (TR-FRET, cAMP hydrolysis). The format is biochemical. Conditions: read-out: PDE4 IC50 range. As for the experimental part: The human PDE4D catalytic domain (UniProt no. Q08499 [S380-L740]) was incubated with a mixture of non-labelled cAMP (cyclic adenosine monophosphate) and fluorescein amidite (FAM) conjugated cAMP and titrated test or reference compound.
Following brief incubation the enzymatic reaction was stopped by addition of binding buffer containing nanoparticles with immobilized trivalent metal ions capable of binding 1) AMP phospho groups and 2) terbium (Tb) donor fluorophores. Subsequent excitation of the Tb donor triggered time-resolved FRET to adjacent FAM acceptor molecules resulting in light emission. In the presence of a PDE4 inhibitor, AMP generation was reduced resulting in a lower fluorescence signal. The cAMP phosphodiester is not bound by the detection system.
Results were expressed as IC50 values (nM) calculated from inhibition curves where the TR-FRET signal was normalized to Tb fluorescence intensity and the negative (DMSO vehicle) and positive (10 microM a PDE4 inhibitor reference compound) controls.
In general terms: In TR-FRET formats the signal depends on donor and acceptor labels being close together.

In test [2] the test system is Human peripheral blood mononuclear cells (PBMC). Put plainly: TNF-α release from LPS-stimulated PBMC. The test is classed as cell-based. The following applies: Lipopolysaccharide 1 microg/ml, 18 hours, AlphaLISA, read-out: TNF-α IC50 range. How it is done:
Human peripheral blood mononuclear cells (PBMC) were isolated from fresh buffy coats by density centrifugation using lymphoprep tubes (Medinor). Frozen PBMC's were washed in serum free assay buffer (RPMI1640 with 25 mM HEPES, 1% pen/strep, […] L glutamine, 0.5% human serum albumin) and living cells counted. Lipopolysaccharide (1 microg/ml; SIGMA) was added to the cells which were then transferred to 384 well tissue culture plates ([…]) containing titrated test compounds. The cells were incubated for 18 hours at 37° C. in serum free assay buffer and the level of TNFalpha in the supernatant was quantitated by AlphaLISA (PerkinElmer) by measuring fluorescence intensity at 615 nm.
Results were expressed as IC50 values calculated from inhibition curves using as controls the secretion in LPS stimulated wells and the secretion in cells incubated with 10 microM of a PDE4 inhibitor reference compound.

pIC50: −log10 of the molar value.

Chain of human PDE4D catalytic domain (Q08499 380-740): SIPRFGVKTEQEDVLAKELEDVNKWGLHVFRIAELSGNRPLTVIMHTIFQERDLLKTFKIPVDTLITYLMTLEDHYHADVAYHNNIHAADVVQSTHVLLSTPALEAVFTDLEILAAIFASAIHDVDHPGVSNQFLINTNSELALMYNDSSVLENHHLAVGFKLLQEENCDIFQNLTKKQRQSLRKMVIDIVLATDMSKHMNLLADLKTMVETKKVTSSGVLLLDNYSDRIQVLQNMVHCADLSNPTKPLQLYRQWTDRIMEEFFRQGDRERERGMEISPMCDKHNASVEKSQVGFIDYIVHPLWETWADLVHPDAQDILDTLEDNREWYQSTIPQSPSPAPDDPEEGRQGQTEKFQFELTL

For `CCN(c1nc(N2CC(OC(=O)c3cnsc3)C2)nc2c1[S+]([O-])CC2)C1CCOCC1` (centres unmarked) [Example 7, [1-[4-[Ethyl(tetrahydropyran-4-yl)amino]-5-oxido-6,7-dihydrothieno[3,2-d]pyrimidin-5-ium-2-yl]azetidin-3-yl] isothiazole-4-carboxylate], the pIC50 in test [1] and in test [2] was 6.30 to 7.00 throughout.

With `CCN(c1nc(N2CC(OC(=O)c3cscn3)C2)nc2c1[S+]([O-])CC2)C1CCOCC1` (centres unmarked) [Example 8, [1-[4-[Ethyl(tetrahydropyran-4-yl)amino]-5-oxido-6,7-dihydrothieno[3,2-d]pyrimidin-5-ium-2-yl]azetidin-3-yl] thiazole-4-carboxylate], the negative logarithm of the IC50 (pIC50) in test [1] and in test [2] was 6.30 to 7.00 throughout.

Take `CCCN(c1nc(N2CC(OC(=O)c3cnsc3)C2)nc2c1[S+]([O-])CC2)C1CCOCC1` (centres unmarked) [Example 9, [1-[4-[Propyl(tetrahydropyran-4-yl)amino]-5-oxido-6,7-dihydrothieno[3,2-d]pyrimidin-5-ium-2-yl]azetidin-3-yl] isothiazole-4-carboxylate]: the pIC50 in test [1] and in test [2] was < 6.30 throughout.

Consider `CCCN(c1nc(N2CC(OC(=O)c3cscn3)C2)nc2c1[S+]([O-])CC2)C1CCOCC1` (centres unmarked) [Example 10, [1-[4-[Propyl(tetrahydropyran-4-yl)amino]-5-oxido-6,7-dihydrothieno[3,2-d]pyrimidin-5-ium-2-yl]azetidin-3-yl] thiazole-4-carboxylate], for which the negative logarithm of the IC50 (pIC50) in test [1] and in test [2] was < 6.30 each time.

Consider `O=C(OC1CN(c2nc3c(c(NC4CCOCC4)n2)[S@@+]([O-])CC3)C1)C1CCCC1` [Example 11, [1-[(5R)-5-oxido-4-(tetrahydropyran-4-ylamino)-6,7-dihydro-thieno[3,2-d]pyrimidin-5-ium-2-yl]azetidin-3-yl] cyclopentanecarboxylate], for which the pIC50 in test [1] and in test [2] was > 7.00 throughout.

Take `O=C(OC1CN(c2nc3c(c(NC4CCOCC4)n2)[S@@+]([O-])CC3)C1)C1CCOCC1` [Example 12, [1-[(5R)-5-oxido-4-(tetrahydropyran-4-ylamino)-6,7-dihydrothieno[3,2-d]pyrimidin-5-ium-2-yl]azetidin-3-yl] tetrahydropyran-4-carboxylate]: the results for the pIC50 in test [1] and in test [2] were 6.30 to 7.00 and > 7.00, respectively.

Regarding `COCCC(=O)OC1CN(c2nc3c(c(N(C)C4CCOCC4)n2)[S+]([O-])CC3)C1` (centres unmarked) [Example 13, [1-[4-[methyl(tetra-hydropyran-4-yl)amino]-5-oxido-6,7-dihydro-thieno[3,2-d]pyrimidin-5-ium-2-yl]azetidin-3-yl] 3-methoxypropanoate], the pIC50 in test [1] and in test [2] was 6.30 to 7.00 in each case.

With `CN(c1nc(N2CC(OC(=O)C3CC(O)C3)C2)nc2c1[S+]([O-])CC2)C1CCOCC1` (centres unmarked) [Example 14, [1-[4-[methyl(tetra-hydropyran-4-yl)amino]-5-oxido-6,7-dihydro-thieno[3,2-d]pyrimidin-5-ium-2-yl]azetidin-3-yl] 3-hydroxycyclobutane-carboxylate], the negative logarithm of the IC50 (pIC50) in test [1] and in test [2] was 6.30 to 7.00 each time.

Regarding `CSCCC(=O)OC1CN(c2nc3c(c(N(C)C4CCOCC4)n2)[S+]([O-])CC3)C1` (centres unmarked) [Example 15, [1-[4-[methyl(tetra-hydropyran-4-yl)amino]-5-oxido-6,7-dihydro-thieno[3,2-d]pyrimidin-5-ium-2-yl]azetidin-3-yl] 3-methylsulfanyl-propanoate], the pIC50 in test [1] and in test [2] was > 7.00 throughout.

As for `CN(c1nc(N2CC(OC(=O)c3ccccc3)C2)nc2c1[S+]([O-])CC2)C1CCOCC1` (centres unmarked) [Example 16, [1-[4-[methyl(tetra-hydropyran-4-yl)amino]-5-oxido-6,7-dihydro-thieno[3,2-d]pyrimidin-5-ium-2-yl]azetidin-3-yl] benzoate], the pIC50 in test [1] and in test [2] was > 7.00 each time.

Take `CN(c1nc(N2CC(OC(=O)c3ccn(C)n3)C2)nc2c1[S+]([O-])CC2)C1CCOCC1` (centres unmarked) [Example 17, [1-[4-[methyl(tetra-hydropyran-4-yl)amino]-5-oxido-6,7-dihydro-thieno[3,2-d]pyrimidin-5-ium-2-yl]azetidin-3-yl] 1-methylpyrazole-3-carboxylate]: the negative-log IC50 (pIC50) in test [1] and in test [2] was > 7.00 throughout.

In the case of `CN(c1nc(N2CC(OC(=O)c3cnn(C)c3)C2)nc2c1[S+]([O-])CC2)C1CCOCC1` (centres unmarked) [Example 18, [1-[4-[methyl(tetra-hydropyran-4-yl)amino]-5-oxido-6,7-dihydro-thieno[3,2-d]pyrimidin-5-ium-2-yl]azetidin-3-yl] 1-methylpyrazole-4-carboxylate], the pIC50 in test [1] and in test [2] was > 7.00 in each case.

For the molecule `CN(c1nc(N2CC(OC(=O)c3cn(C)cn3)C2)nc2c1[S+]([O-])CC2)C1CCOCC1` (centres unmarked) [Example 19, [1-[4-[methyl(tetra-hydropyran-4-yl)amino]-5-oxido-6,7-dihydro-thieno[3,2-d]pyrimidin-5-ium-2-yl]azetidin-3-yl] 1-methylimidazole-4-carboxylate], the negative-log IC50 (pIC50) in test [1] and in test [2] was > 7.00 throughout.

Turning to `Cc1nc(C(=O)OC2CN(c3nc4c(c(N(C)C5CCOCC5)n3)[S+]([O-])CC4)C2)co1` (centres unmarked) [Example 20, [1-[4-[methyl(tetra-hydropyran-4-yl)amino]-5-oxido-6,7-dihydro-thieno[3,2-d]pyrimidin-5-ium-2-yl]azetidin-3-yl] 2-methyloxazole-4-carboxylate], the negative logarithm of the IC50 (pIC50) in test [1] and in test [2] was > 7.00 each time.

Take `Cc1ncc(C(=O)OC2CN(c3nc4c(c(N(C)C5CCOCC5)n3)[S+]([O-])CC4)C2)o1` (centres unmarked) [Example 21, [1-[4-[methyl(tetra-hydropyran-4-yl)amino]-5-oxido-6,7-dihydro-thieno[3,2-d]pyrimidin-5-ium-2-yl]azetidin-3-yl] 2-methyloxazole-5-carboxylate]: the pIC50 in test [1] and in test [2] was > 7.00 in each case.

Take `CN(c1nc(N2CC(OC(=O)c3ccns3)C2)nc2c1[S+]([O-])CC2)C1CCOCC1` (centres unmarked) [Example 22, [1-[4-[methyl(tetra-hydropyran-4-yl)amino]-5-oxido-6,7-dihydro-thieno[3,2-d]pyrimidin-5-ium-2-yl]azetidin-3-yl] isothiazole-5-carboxylate]: the pIC50 in test [1] and in test [2] was > 7.00 throughout.

Regarding `CN(c1nc(N2CC(OC(=O)C3CCOCC3)C2)nc2c1[S+]([O-])CC2)C1CCOCC1` (centres unmarked) [Example 23, [1-[4-[methyl(tetra-hydropyran-4-yl)amino]-5-oxido-6,7-dihydro-thieno[3,2-d]pyrimidin-5-ium-2-yl]azetidin-3-yl] tetrahydropyran-4-carboxylate], the pIC50 in test [1] and in test [2] was > 7.00 each time.

As for `Cc1ccccc1C(=O)OC1CN(c2nc3c(c(N(C)C4CCOCC4)n2)[S+]([O-])CC3)C1` (centres unmarked) [Example 24, [1-[4-[methyl(tetra-hydropyran-4-yl)amino]-5-oxido-6,7-dihydro-thieno[3,2-d]pyrimidin-5-ium-2-yl]azetidin-3-yl] 2-methylbenzoate], the pIC50 in test [1] and in test [2] was > 7.00 throughout.

Regarding `Cc1cccc(C(=O)OC2CN(c3nc4c(c(N(C)C5CCOCC5)n3)[S+]([O-])CC4)C2)c1` (centres unmarked) [Example 25, [1-[4-[methyl(tetra-hydropyran-4-yl)amino]-5-oxido-6,7-dihydro-thieno[3,2-d]pyrimidin-5-ium-2-yl]azetidin-3-yl] 3-methylbenzoate], the pIC50 in test [1] and in test [2] was > 7.00 throughout.

`Cc1ccc(C(=O)OC2CN(c3nc4c(c(N(C)C5CCOCC5)n3)[S+]([O-])CC4)C2)cc1` (centres unmarked) [Example 26, [1-[4-[methyl(tetra-hydropyran-4-yl)amino]-5-oxido-6,7-dihydro-thieno[3,2-d]pyrimidin-5-ium-2-yl]azetidin-3-yl] 4-methylbenzoate]: the negative-log IC50 (pIC50) in test [1] and in test [2] was > 7.00 in each case.

Consider `Cc1ncc(C(=O)OC2CN(c3nc4c(c(N(C)C5CCOCC5)n3)[S+]([O-])CC4)C2)cn1` (centres unmarked) [Example 27, [1-[4-[methyl(tetra-hydropyran-4-yl)amino]-5-oxido-6,7-dihydro-thieno[3,2-d]pyrimidin-5-ium-2-yl]azetidin-3-yl] 2-methylpyrimidine-5-carboxylate], for which the negative-log IC50 (pIC50) in test [1] and in test [2] was > 7.00 each time.

Regarding `CN(c1nc(N2CC(OC(=O)c3ccc(F)cc3)C2)nc2c1[S+]([O-])CC2)C1CCOCC1` (centres unmarked) [Example 28, [1-[4-[methyl(tetra-hydropyran-4-yl)amino]-5-oxido-6,7-dihydro-thieno[3,2-d]pyrimidin-5-ium-2-yl]azetidin-3-yl] 4-fluorobenzoate], the pIC50 in test [1] and in test [2] was > 7.00 in each case.
